Legend:
Test in all cases: relative viability (nuclei count vs DMSO), 5 days (fraction); higher = more cells survive
Motesanib + Alpelisib = compound: CC1(C)CNc2cc(NC(=O)c3cccnc3NCc3ccncc3)ccc21 [Motesanib] + Cc1nc(NC(=O)N2CCC[C@H]2C(N)=O)sc1-c1ccnc(C(C)(C)C(F)(F)F)c1 [Alpelisib] (partner 2 µM)
Procedure, shortened: (§1)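 The day after seeding in 1536-well plates, lung cancer cell lines were treated by pin tool with a single drug, or with a fixed anchor-drug dose together with five library-drug doses (not always all listed) in √10 steps. After 5 days, a combined fix-and-stain solution (final 0.05% Triton X-100, 1% formaldehyde, 1 ug/ml Hoechst) was added. Nuclei counted on 4× images gave relative viability as treated counts over vehicle counts, reported as the median of duplicate plates.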

[1] = compound: C[C@@]1(C(=O)Nc2ccc(F)nc2)CCCN1c1nc(Nc2cc(C3CC3)n[nH]2)c2cccn2n1 + Nc1nc2[nH]cc(CCc3ccc(C(=O)N[C@@H](CCC(=O)O)C(=O)O)cc3)c2c(=O)[nH]1 [Pemetrexed] (partner 0.2 µM)
Procedure, shortened: as §1

Motesanib + Palbociclib = compound: CC1(C)CNc2cc(NC(=O)c3cccnc3NCc3ccncc3)ccc21 [Motesanib] + CC(=O)c1c(C)c2cnc(Nc3ccc(N4CCNCC4)cn3)nc2n(C2CCCC2)c1=O [Palbociclib] (partner 0.5 µM)
Procedure, shortened: as §1

[2] = compound: C[C@@]1(C(=O)Nc2ccc(F)nc2)CCCN1c1nc(Nc2cc(C3CC3)n[nH]2)c2cccn2n1 + CS(=O)(=O)N1CCN(Cc2cc3nc(-c4cccc5[nH]ncc45)nc(N4CCOCC4)c3s2)CC1 [Pictilisib] (partner 1 µM)
Procedure, shortened: as §1

Row | Cell Line | relative viability (Motesanib + Alpelisib; first compound 0.01 µM) | relative viability (Motesanib + Alpelisib; first compound 0.03162 µM) | relative viability (Motesanib + Alpelisib; first compound 0.1 µM) | relative viability (Motesanib + Alpelisib; first compound 0.3162 µM) | relative viability (Motesanib + Alpelisib; first compound 1 µM) | relative viability ([1]; first compound 0.04 µM) | relative viability ([1]; first compound 0.1265 µM) | relative viability ([1]; first compound 0.4 µM) | relative viability ([1]; first compound 1.265 µM) | relative viability (Motesanib + Palbociclib; first compound 0.01 µM) | relative viability (Motesanib + Palbociclib; first compound 0.03162 µM) | relative viability (Motesanib + Palbociclib; first compound 0.1 µM) | relative viability (Motesanib + Palbociclib; first compound 0.3162 µM) | relative viability (Motesanib + Palbociclib; first compound 1 µM) | relative viability ([2]; first compound 0.04 µM) | relative viability ([2]; first compound 0.1265 µM) | relative viability ([2]; first compound 0.4 µM) | relative viability ([2]; first compound 1.265 µM)
1 | H3255 | 0.78 | 0.7 | 0.762 | 0.684 | 0.771 | 0.602 | 0.523 | 0.528 | 0.484 | 0.308 | 0.326 | 0.322 | 0.348 | 0.363 | 0.49 | 0.423 | 0.415 | 0.371
2 | NCI-H1993 | 0.656 | 0.659 | 0.765 | 0.697 | 0.642 | 0.496 | 0.488 | 0.462 | 0.474 | 0.675 | 0.622 | 0.752 | 0.626 | 0.553 | 0.906 | – | 0.803 | 0.812
3 | NCI-H1734 | 0.711 | 0.608 | 0.719 | 0.72 | 0.746 | 0.418 | 0.338 | 0.404 | 0.381 | 0.359 | 0.349 | 0.387 | 0.348 | 0.324 | 0.381 | 0.301 | 0.321 | 0.296
4 | HOP-62 | 0.91 | 0.663 | 0.922 | 1.3 | 1.15 | 0.294 | 0.297 | 0.315 | 0.341 | 0.451 | 0.43 | 0.499 | 0.51 | 0.494 | 0.882 | 0.632 | 0.525 | 0.818
5 | LOU-NH91 | 0.746 | 0.759 | 0.708 | 0.707 | 0.802 | 0.394 | 0.409 | 0.353 | 0.346 | 0.536 | 0.463 | 0.539 | 0.58 | 0.553 | 0.492 | 0.478 | 0.452 | 0.448
6 | NCI-H2228 | 0.767 | 0.713 | 0.722 | 0.777 | 0.806 | 0.388 | 0.355 | 0.317 | 0.286 | 0.664 | 0.8 | 0.589 | 0.937 | 0.613 | 0.216 | 0.175 | 0.198 | 0.246
7 | PC-14 | 0.958 | 1.03 | 0.998 | 0.931 | 0.958 | 0.154 | 0.155 | 0.134 | 0.121 | 0.465 | 0.539 | 0.539 | 0.512 | 0.593 | 0.505 | 0.0522 | 0.37 | 0.485
8 | NCI-H1437 | 0.983 | 0.979 | 0.901 | 1.02 | 1.07 | 0.246 | 0.242 | 0.242 | 0.284 | 0.271 | 0.266 | 0.295 | 0.302 | 0.278 | 0.271 | 0.295 | 0.248 | 0.363
9 | NCI-H460 | 0.567 | 0.495 | 0.484 | 0.424 | 0.478 | 0.0607 | 0.0684 | 0.0535 | 0.0527 | 0.278 | 0.162 | 0.142 | 0.197 | 0.137 | 0.299 | 0.202 | 0.184 | 0.236

— the supplement of paper PMC10307832
